Measurements published in the supplement of paper PMC10307832.

Experiments:
Test in all cases: relative viability (nuclei count vs DMSO), 5 days (fraction); higher = more cells survive
[1] = compound: CC1=CC(=C(N1C2=CC=C(C=C2)Cl)C)C(=O)CN3CCCCC3 [IU1-47]
How it was run: (§1)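 Viability is treated-well nuclei as a fraction of vehicle-well nuclei, reported as the median across plates. Before counting, lung cancer cell lines were kept overnight at 37 °C in 1536-well plates, pinned with five √10-spaced library-drug doses on vehicle-anchored plates, and left 5 days without medium change, then fixed, permeabilised and Hoechst-stained in one step, imaged at 4× and counted by MetaXpress. A plate passed only if control CV was below 25% and at least one doubling occurred.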

[2] = compound: Cc1nc(C(=O)NCC(=O)O)c(O)c2ccc(Oc3ccccc3)cc12 [FG-4592]
How it was run: as §1

[3] = compound: Cc1nc(C(=O)NCC(=O)O)c(O)c2ccc(Oc3ccccc3)cc12 [FG-4592] + CC1(C)CCC(c2ccc(Cl)cc2)=C(CN2CCN(c3ccc(C(=O)NS(=O)(=O)c4ccc(N[C@H](CCN5CCOCC5)CSc5ccccc5)c(S(=O)(=O)C(F)(F)F)c4)cc3)CC2)C1 [Navitoclax] (partner 0.5 µM)
How it was run: (§2)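 Lung cancer cell lines were seeded in 1536-well plates and dosed by pin tool the next day, with either a single drug or a fixed anchor-drug dose combined with five library-drug doses (not always all listed) spaced in √10 steps. Five days later, one step fixed the cells and stained their nuclei (final 0.05% Triton X-100, 1% formaldehyde, 1 ug/ml Hoechst), and nuclei were counted on 4× images. Relative viability is the nuclei count in treated wells divided by the count in vehicle wells, and each value is the median of duplicate plates.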

[4] = compound: CC1=CC(=C(N1C2=CC=C(C=C2)Cl)C)C(=O)CN3CCCCC3 [IU1-47] + CC(=O)Nc1cccc(-n2c(=O)n(C3CC3)c(=O)c3c(Nc4ccc(I)cc4F)n(C)c(=O)c(C)c32)c1 [Trametinib] (partner 0.02 µM)
How it was run: as §2

Cell Line	relative viability ([1]; 0.08 µM)	relative viability ([1]; 0.253 µM)	relative viability ([1]; 0.8 µM)	relative viability ([1]; 2.53 µM)	relative viability ([1]; 8 µM)	relative viability ([2]; 0.08 µM)	relative viability ([2]; 0.253 µM)	relative viability ([2]; 0.8 µM)	relative viability ([2]; 2.53 µM)	relative viability ([2]; 8 µM)	relative viability ([3]; first compound 0.08 µM)	relative viability ([3]; first compound 0.253 µM)	relative viability ([3]; first compound 0.8 µM)	relative viability ([3]; first compound 2.53 µM)	relative viability ([3]; first compound 8 µM)	relative viability ([4]; first compound 0.08 µM)	relative viability ([4]; first compound 0.253 µM)	relative viability ([4]; first compound 0.8 µM)	relative viability ([4]; first compound 2.53 µM)	relative viability ([4]; first compound 8 µM)
NCI-H1437	1.02	0.94	1.08	0.922	0.936	1	0.929	0.991	0.972	0.822	1.07	1.09	1.16	1.01	0.852	0.48	0.485	0.556	0.391	0.496
NCI-H460	1.04	0.987	1.08	0.955	1.01	0.965	0.947	1.03	1	1.02	1.15	1.08	1.25	0.963	0.979	0.134	0.127	0.2	0.129	0.18
NCI-H1666	0.953	1.02	0.968	0.957	1.01	0.979	0.939	0.953	0.913	0.901	1.01	0.674	1.07	0.905	0.879	1	0.871	0.851	0.916	0.901
NCI-H1651	0.978	0.995	1.01	0.918	0.983	0.973	0.941	0.921	0.961	0.915	1.13	0.946	1.08	1.18	0.833	0.885	0.856	0.806	0.824	0.811
NCI-H1755	1.11	1.11	1.09	1.04	0.958	0.958	0.941	0.916	1.02	1.03	0.989	0.977	0.937	0.997	1.01	0.794	0.756	0.891	0.812	0.794
HARA	0.964	0.935	1.09	0.68	0.817	0.782	0.752	0.822	1.01	1.13	1.15	1.09		1.13	1.15	0.802		0.929	0.628	0.774
NCI-H596	1.19	0.775	1.14	1.03	0.801	0.794	0.955		1.03	0.651	0.897	0.914		0.991	0.817	0.765		0.779	0.834	0.677
NCI-H23	0.93	0.986	1.15	0.908	0.857	0.965	0.833	0.71	0.782	0.829	0.832	0.786	0.809	0.744	0.708	0.5		0.305	0.35	0.38
LCLC-97TM1	0.954	1.22	1.06	0.589	0.834	0.918	0.901	0.791	0.924	0.873	0.396	0.489	0.306		0.496	0.201	0.188	0.198		0.179
